{"source": "patent US20230220047A1", "about": "“PEPTIDES FOR TREATMENT OF SEPSIS AND CANCER” (NORWEGIAN UNIVERSITY OF SCIENCE AND TECHNOLOGY (NTNU), priority 2020, published 2023)", "key": {"[1]": {"test_system": "JJN-3 multiple myeloma cells", "type": "cell-based, human", "conditions": "JJN-3, 4 μM peptide", "text": "Minor effects on the proliferation of the IH-1 and RPMI 8226 cell lines are seen. […] The number of viable cells was detected based on quantitation of ATP by luminescent signal in correlation to a standard curve prepared for each cell line. Results are based on 3-5 biological replicates for each condition, error bars show standard deviation of mean.\n(§1) Multiple myeloma cells JJN-3 (DSMZ (Germany) no. ACC 541), ANBL-6 (Cellosaurus accession number CVCL_5425, obtained from Dr Diane Jelinek, Mayo Clinic, Rochester, Minn.), INA-6 (Cellosaurus accession number CVCL_5209, obtained from Dr M. Gramatzki, University of Erlangen-Nurnberg, Erlangen, Germany), RPMI-8226 (ATCC CCL-155), and IH-1 (Cellosaurus accession number CVCL_WZ44, established from the pleural effusion of a myeloma patient by Myeloma research group, IKOM, NTNU, Trondheim, Norway) were grown in RPMI-1640 (Sigma-Aldrich Norway, Oslo, Norway) supplemented with 100 nM penicillin/streptomycin and 10% FCS, and for ANBL-6, IH-1 and INA-6 cells 2 ng/ml recombinant IL-6 (Gibco, Thermo Fisher Scientific, Waltham, Mass., USA). Murine multiple myeloma Vk*MYC cells were obtained from M.D. Leif Bergsagel (Mayo Clinic, Richester, Minn., USA) and cultured in RPMI-1640 supplemented with 2% human serum (B^+, The blood bank, St Olav's Hospital, Trondheim, Norway), 100 nM penicillin/streptomycin, L-Glutamine (2 mM) and recombinant IL-6 (1 ng/ml). HEK293T (ATCC CRL-3216) were cultured in DMEM with 10% FCS. THP-1 TRAM knockout (KO) and TLR4 KO cell lines, and matching lentivirally transduced control cell lines, were differentiated in the same way as wild type (WT) THP-1. TRAM KO THP-1 cell line is described in Yurchenko et al. (supra).\nTo evaluate the potential impact of the P7 peptide on proliferation of tumour cells of lymphoid origin, we performed a CellTiter-Glo Luminescent Cell Viability Assay to address proliferation of several multiple myeloma (MM) cell lines. […]"}, "[2]": {"test_system": "Jurkat cells", "assay": "Proliferation of Jurkat T cell leukaemia cells", "type": "cell-based, human", "conditions": "15 μM or 20 μM, 48 h", "procedure": "Jurkat cells were seeded at 5000 cells/well (as indicated by dotted line) and incubated in medium supplemented with water, penetratin, P7-Pen or P7-N4-Pen. Peptides were included at 15 μM (A) or 20 μM (B). Cells were incubated for 48 hours then counted. […] Results are based on 3 biological replicates, error bars show standard deviation of mean.\n(§2) SW480 (ATCC CCL-228) and Jurkat (ATCC Clone E6-1; TIB-152) cells were cultured in RPMI 1640 (Sigma-Aldrich, Schnelldorf, Germany) supplemented with 10% heat-inactivated FCS, penicillin/streptomycin (Life Technologies) and 20 mM L-Glutamine. THP-1 cells (ATCC TIB-202) were cultured in RPMI-1640 (high-glucose, ATCC) supplemented with 10% heat inactivated foetal calf serum (FCS), 100 nM penicillin/streptomycin and 5 μM β-mercaptoethanol (Sigma). THP-1 cells were differentiated with 60 ng/ml phorbol 12-myristate 13-acetate (PMA, Sigma) for 72 h, followed by 24 or 48 h in medium without PMA.\n(§3) The peptides were tested against the SW480 cell line in the presence and absence of LPS."}, "[3]": {"test_system": "primary Vk*MYC multiple myeloma cells", "assay": "Primary Vk*MYC multiple myeloma cells", "type": "cell-based, mouse", "conditions": "7.5 or 15 μM, 48 h", "procedure": "Isolated primary cells were seeded then incubated for 48 hours in growth medium supplemented with water, penetratin, P7-Pen, P7-A4-Pen or P7-N4-Pen, then counted. Peptides were included at concentrations of 7.5 or 15 μM. […] Results are based on 3 biological replicates, error bars show standard deviation of mean.\nas §1\nPrimary multiple myeloma cells were isolated from Vk*Myc mice and provided by the Multiple Myeloma Research Group, IKOM, NTNU. The peptides P7-Pen, P7-N4-Pen and P7-A4-Pen were applied to the cultured primary cells and effect of the peptides on cell growth analysed as previously."}, "[4]": {"test_system": "THP-1 cells", "assay": "Viability of acute myeloid leukaemia cell line THP-1", "type": "cell-based, human", "conditions": "5-30 μM, 48 h", "procedure": "THP-1 cells were seeded in medium at 10,000 cells/well, as indicated by the dotted line. Cells were incubated for 48 hours in medium supplemented with water, C3A-Pen, P7-Pen, P7-A4-Pen or P7-N4-Pen. The peptides were included at concentrations ranging from 5-30 μM. At 48 hours cells were counted. […] The results with other peptides were less clear-cut. Results are based on 3 biological replicates, error bars show standard deviation of mean.\nas §3"}, "[5]": {"test_system": "SW480 cells", "assay": "Proliferation of SW480 colon cancer cells", "type": "cell-based, human", "conditions": "15 μM, 48 h, with or without LPS 100 ng/ml", "procedure": "SW480 cells were seeded and incubated in medium alone or supplemented with water, 15 μM penetratin, 15 μM P7-Pen or 15 μM P7-N4-Pen. Under each condition cells were incubated both without LPS and with 100 ng/ml LPS. Cells were incubated for 48 hours then counted. […] The presence of LPS made no difference to the effect of the peptides on proliferation. Results are based on 3 biological replicates, error bars show standard deviation of mean.\nas §2, §3"}, "[6]": {"test_system": "ANBL-6 multiple myeloma cells", "assay": "CellTiter-Glo cell viability assay, ANBL-6", "type": "cell-based", "procedure": "Minor effects on the proliferation of the IH-1 and RPMI 8226 cell lines are seen. Cells were seeded at the level shown (left-hand bar of each set) then incubated in medium containing water, 10 μM penetratin or 10 μM P7-A4-Pen for 48 hr (except for INA-6 cells, which were incubated with 12.5 μM penetratin or 12.5 μM P7-A4-Pen). The number of viable cells was detected based on quantitation of ATP by luminescent signal in correlation to a standard curve prepared for each cell line. Results are based on 3-5 biological replicates for each condition, error bars show standard deviation of mean.\nCells were seeded and then incubated in growth medium alone or supplemented with water, DMSO, 15 μM penetratin or 15 μM investigational peptide. The growth medium only and H2O—, DMSO- and penetratin-supplemented cultures constituted controls.\nThe solid horizontal lines show the amount of cells originally seeded. In (A) ANBL-6 cells were seeded at a level of 10,000 cells/well, then incubated in medium supplemented with water, the control peptide C3A-Pen, P7-Pen, P7-A4-Pen, P7-N4-Pen or P7-K2-Pen for 48 hours. The peptides were included at concentrations of 5, 10, 12.5, 15, 20 or 30 μM. Cells were counted at 48 hours. In (B), ANBL-6 cells were seeded at a level of 5000 cells/well, then incubated in medium supplemented with water, P6-Pen, P-P6-Pen, P7-D4-Pen or P7-A4-Pen for 48 hours. Peptides were included at concentrations of 5, 10 or 20 μM. Cells were counted at 48 hours. […] Results are based on 3 biological replicates, error bars show standard deviation of mean.\nas §1\nTo evaluate the potential impact of the P7 peptide on proliferation of tumour cells of lymphoid origin, we performed a CellTiter-Glo Luminescent Cell Viability Assay to address proliferation of several multiple myeloma (MM) cell lines. For the assay, cells were incubated for 48 h in respective media containing either solvent (water), 10 μM control peptide (Pen) or the SLAMF1-derived peptide P7-A4-Pen for 48 h (FIG. 32) (with the exception of the INA-6 cells which were incubated with 12.5 μM control peptide or P7-A4-Pen). […] This effect could be mediated by P7-A4-Pen-induced inhibition of signalling pathways that are crucial for driving proliferation and/or survival of MM tumour cells."}}, "note": "“Also recorded” adds a separate entry of the source."}
{"substance": "Ac-ITVNASVTLTGRQIKIWFQNRRMKWKK-NH2 [Peptide P7-N4-Pen]", "values": [{"measurement": "combination effect with melphalan at low melphalan concentrations", "setting": "[1]", "result": "synergistic effect"}, {"measurement": "effect on proliferation of Jurkat cells", "setting": "[2]", "result": "modest but clear anti-proliferative effect"}, {"measurement": "effect on primary multiple myeloma cells", "setting": "[3]", "result": "strong cytotoxic effect"}, {"measurement": "effect on THP-1 cell number", "setting": "[4]", "result": "clear dose-dependent cytotoxic effect; also recorded: anti-proliferative effect"}, {"measurement": "effect on proliferation of SW480 cells", "setting": "[5]", "result": "a degree of anti-proliferative effect"}, {"measurement": "effect on proliferation of ANBL-6 cells", "setting": "[6]; 15 μM", "result": "anti-proliferative effect"}, {"measurement": "anti-proliferative activity over a concentration series", "setting": "[6]; 5, 10, 12.5, 15, 20 and 30 μM or 5, 10 and 20 μM, 48 h", "result": "clear concentration-dependent effect"}]}
